1 compound from paper PMC12005767 (Advanced Science, 2025) can be followed below.

For orientation: IC50 means the concentration that inhibits the measured activity by half. Low readings indicate greater potency, high ones weaker potency.

Where only a bound is given, the exact number is not on record here.

Data set [1] deals with ICR mice. The data set can be described thus: Subacute toxicity study in ICR mice. The data set is classed as in vivo. How it is done: For evaluation of subacute toxicity, ICR mice were divided into two groups (n = 8 per group (4M, 4F)). The B6 was prepared in vehicle (10% DMSO and 90% 0.5% HPMC aqueous solution) to administer once daily, by oral gavage for 30 d in the treatment groups. To the control groups, vehicle was administered orally. The animals were monitored for clinical and behavioral symptoms such as body weight, diarrhea, immobility, and mortality during the first day and thereafter for 30 d.

In data set [2] the target is T1, HDAC10 (Homo sapiens, UniProt Q969S8).
T1 construct: purchased BPS Bioscience
Kind of data set: In vitro HDACs inhibition fluorescence assay, HDAC10. The data set is classed as biochemical. The conditions noted are these: mean ± SEM. Here is the method:
(§1) In Vitro HDACs Inhibition Fluorescence Assay: For the inhibitory activity against HDAC1‐10, enzymes were also procured from BPS Bioscience. The in vitro […] inhibition assays were conducted following the established method described previously.^[ [45] ^] The working concentrations of HDAC1‐10 were 4 × 10^−9 M. The fluorogenic substrate of HDAC1, 2, 3, and 6 was Boc‐Lys (acetyl)‐AMC, and the substrate of HDAC4, 5, 7, 8, 9, and 10 was Boc‐Lys (trifluoroacetyl) AMC. The developer solution consists of 30 mg mL^−1 trypsin and 5 × 10^−6 M TSA. A standing period of 30 min was sufficient before assessing the fluorescence intensity.

The target in data set [3] is T2, HDAC9 (Homo sapiens, UniProt Q9UKV0).
T2 construct: purchased BPS Bioscience
Kind of data set: In vitro HDACs inhibition fluorescence assay, HDAC9. The data set is classed as biochemical. To be noted: mean ± SEM. Here is the method: as §1

Data set [4] addresses T3, HDAC11 (Homo sapiens, UniProt Q96DB2).
T3 construct: The HDAC11 enzyme was a full‐length human recombinant HDAC enzyme sourced from BPS Bioscience; purchased BPS Bioscience
T3 sequence (Q96DB2 1-347): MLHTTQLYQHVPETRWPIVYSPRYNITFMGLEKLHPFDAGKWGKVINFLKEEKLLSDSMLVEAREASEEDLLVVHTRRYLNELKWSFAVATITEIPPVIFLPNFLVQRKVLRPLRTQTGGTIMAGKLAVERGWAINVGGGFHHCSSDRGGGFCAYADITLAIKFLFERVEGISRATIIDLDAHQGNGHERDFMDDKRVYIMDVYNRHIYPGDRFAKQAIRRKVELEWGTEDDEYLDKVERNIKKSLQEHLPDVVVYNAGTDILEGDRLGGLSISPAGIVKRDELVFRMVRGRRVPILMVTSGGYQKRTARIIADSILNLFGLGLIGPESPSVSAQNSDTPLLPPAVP
The data set can be described thus: HDAC11 inhibition fluorescence assay (ETDKmyr substrate). The class given is biochemical. Here is the method: The HDAC11 enzyme was a full‐length human recombinant HDAC enzyme sourced from BPS Bioscience. In detail, a total of 20 µL of recombinant HDAC11 enzyme solution (working concentration = 1 × 10^−9 M) was combined with varying concentrations of the test compound (20 µL) in a 96‐well black plate. The mixture was then incubated at a temperature of 30 °C for a duration of 1 h. Subsequently, 10 µL of the specific fluorogenic substrate (ETDKacyl‐Kmyr) was added. Following 2 h incubation at 30 °C, the catalytic reaction was ceased by adding 10 µL of a developer solution consisting of 2 mg mL^−1 trypsin and 5 × 10^−6 M trichostatin A (TSA). After a standing period of 6 h, the fluorescence intensity was assessed using a microplate reader at excitation and emission wavelengths of 360 and 460 nm, respectively. The inhibition ratios were calculated based on the fluorescence intensity readings of the test wells compared to the control wells. GraphPad Prism 8.0 software was employed to generate IC 50 curves and determine the corresponding IC 50 values utilizing the “log(inhibitor) versus normalized response‐variable slope” function.

Data set [5] has as its target T4, HDAC2 (Homo sapiens, UniProt Q92769).
T4 construct: purchased BPS Bioscience
The data set can be described thus: In vitro HDACs inhibition fluorescence assay, HDAC2. The class given is biochemical. To be noted: mean ± SEM. How it is done:
as §1

Data set [6] addresses T5, HDAC5 (Homo sapiens, UniProt Q9UQL6).
T5 construct: purchased BPS Bioscience
Kind of data set: In vitro HDACs inhibition fluorescence assay, HDAC5. The data set is classed as biochemical. To be noted: mean ± SEM. Here is the method:
as §1

The nature of data set [7]: Tissue distribution study in ICR mice (i.p.). The data set is classed as in vivo. The conditions noted are these: i.p. at 5 mg/kg; 0.17, 0.5 and 1 h. How it is done:
For the distribution experiment, compound was dissolved in solution containing 10% DMAC, 40% PEG‐400, and 50% water and was delivered to […] male ICR mice by intraperitoneal injection (i.p.) at a dose of 5 mg kg^−1. Then three […] were sacrificed for each 0.17, 0.5, and 1 h time period. Subsequently, the heart, liver, spleen, lung, and kidney were immediately collected. Blood samples were obtained via cardiac puncture and processed by centrifugation to retrieve the plasma fraction. Tissues were flushed with normal saline, dried, weighed, and then homogenized in 5 mL methanol. Tissue samples were centrifuged at 4000 g, and supernatants were stored in freezer at −80 °C before analyzing. 20 µL of the reconstitution solution were analyzed via LC‐MS system. The 8‐week‐old male C57BL/6J mice were provided by GemPharmatech (Nanjing, China).

Data set [8] deals with SREBP1c, FASN, SCD1, CPT1A, PGC1α, PPARα, p-AMPKα (Thr172), LKB1 in HepG2 cells. Kind of data set: Protein and mRNA expression and AMPKα phosphorylation in FFA-induced HepG2 cells. The class given is cell-based, human. How it is done: For the lipid accumulation experiment, HepG2 cells were incubated for 24 h in DMEM containing 0.5 × 10^−3 M of a mixture of free fatty acids (FFA; oleic acid: palmitic acid = 2:1) and 1% FFA‐free bovine serum albumin to induce intracellular lipid accumulation, together with B6 treatment.
Western blot was carried out as described.^[ [49] ^] In brief, samples were lysed with a lysis buffer. The same quantity of total proteins (40–60 µg) from each sample was separated on SDS‐PAGE followed by transfer onto a nitrocellulose filter membrane and incubation with the indicated antibodies. After incubation with secondary antibodies, the protein bands were visualized using a chemiluminescence imaging system. All samples in the same group were processed simultaneously.
Cells and liver tissues were extracted for total RNA. A reverse transcription kit was used to synthesize cDNA. qRT‐PCR was performed with the primers listed in Table S1 (Supporting Information) using the SYBR green PCR master mix. The coding sequence of the target gene was found in NCBI, and Primer3 (v.0.4.0) was used to design amplification primers. The results were normalized by β‐actin in the corresponding sample.

[9] abbreviates: 50 mg kg^−1 p.o. daily for 30 d, vs control group.
[10] abbreviates: FFA-induced HepG2 cells, 0.5 × 10^−6 M, 24 h.
Setting [11] is: FFA-treated HepG2 cells, 0.5 × 10^−6 M, 24 h.

T5 sequence (Q9UQL6 whole entry): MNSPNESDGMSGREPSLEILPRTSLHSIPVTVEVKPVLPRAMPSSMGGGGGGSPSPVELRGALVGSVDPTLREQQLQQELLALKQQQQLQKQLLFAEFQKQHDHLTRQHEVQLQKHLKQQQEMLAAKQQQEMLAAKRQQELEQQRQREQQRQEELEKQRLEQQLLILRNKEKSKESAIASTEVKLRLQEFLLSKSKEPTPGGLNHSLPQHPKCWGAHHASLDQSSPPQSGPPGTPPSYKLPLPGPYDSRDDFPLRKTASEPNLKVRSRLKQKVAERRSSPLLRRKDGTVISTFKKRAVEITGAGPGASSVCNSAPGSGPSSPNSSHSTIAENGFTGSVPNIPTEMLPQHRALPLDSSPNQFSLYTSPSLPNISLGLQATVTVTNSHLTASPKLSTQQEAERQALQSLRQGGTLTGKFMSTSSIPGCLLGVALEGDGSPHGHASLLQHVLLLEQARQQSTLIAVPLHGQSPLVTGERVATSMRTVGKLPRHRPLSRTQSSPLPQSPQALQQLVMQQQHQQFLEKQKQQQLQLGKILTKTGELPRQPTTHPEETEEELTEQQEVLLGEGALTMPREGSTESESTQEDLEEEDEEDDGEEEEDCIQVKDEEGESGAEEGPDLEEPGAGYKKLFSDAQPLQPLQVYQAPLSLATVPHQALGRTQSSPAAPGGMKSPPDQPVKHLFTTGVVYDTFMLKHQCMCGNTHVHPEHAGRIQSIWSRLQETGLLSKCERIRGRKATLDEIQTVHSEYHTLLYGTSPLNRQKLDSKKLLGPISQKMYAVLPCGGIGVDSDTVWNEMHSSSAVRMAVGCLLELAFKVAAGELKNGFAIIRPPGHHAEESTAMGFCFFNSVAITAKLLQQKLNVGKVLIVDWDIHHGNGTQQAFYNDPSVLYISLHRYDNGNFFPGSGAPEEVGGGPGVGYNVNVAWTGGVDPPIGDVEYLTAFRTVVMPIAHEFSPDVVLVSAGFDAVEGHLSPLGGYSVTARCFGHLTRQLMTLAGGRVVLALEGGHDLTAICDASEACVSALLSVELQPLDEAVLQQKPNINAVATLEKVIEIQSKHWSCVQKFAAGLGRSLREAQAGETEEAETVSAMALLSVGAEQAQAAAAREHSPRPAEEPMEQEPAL
T2 sequence (Q9UKV0 whole entry): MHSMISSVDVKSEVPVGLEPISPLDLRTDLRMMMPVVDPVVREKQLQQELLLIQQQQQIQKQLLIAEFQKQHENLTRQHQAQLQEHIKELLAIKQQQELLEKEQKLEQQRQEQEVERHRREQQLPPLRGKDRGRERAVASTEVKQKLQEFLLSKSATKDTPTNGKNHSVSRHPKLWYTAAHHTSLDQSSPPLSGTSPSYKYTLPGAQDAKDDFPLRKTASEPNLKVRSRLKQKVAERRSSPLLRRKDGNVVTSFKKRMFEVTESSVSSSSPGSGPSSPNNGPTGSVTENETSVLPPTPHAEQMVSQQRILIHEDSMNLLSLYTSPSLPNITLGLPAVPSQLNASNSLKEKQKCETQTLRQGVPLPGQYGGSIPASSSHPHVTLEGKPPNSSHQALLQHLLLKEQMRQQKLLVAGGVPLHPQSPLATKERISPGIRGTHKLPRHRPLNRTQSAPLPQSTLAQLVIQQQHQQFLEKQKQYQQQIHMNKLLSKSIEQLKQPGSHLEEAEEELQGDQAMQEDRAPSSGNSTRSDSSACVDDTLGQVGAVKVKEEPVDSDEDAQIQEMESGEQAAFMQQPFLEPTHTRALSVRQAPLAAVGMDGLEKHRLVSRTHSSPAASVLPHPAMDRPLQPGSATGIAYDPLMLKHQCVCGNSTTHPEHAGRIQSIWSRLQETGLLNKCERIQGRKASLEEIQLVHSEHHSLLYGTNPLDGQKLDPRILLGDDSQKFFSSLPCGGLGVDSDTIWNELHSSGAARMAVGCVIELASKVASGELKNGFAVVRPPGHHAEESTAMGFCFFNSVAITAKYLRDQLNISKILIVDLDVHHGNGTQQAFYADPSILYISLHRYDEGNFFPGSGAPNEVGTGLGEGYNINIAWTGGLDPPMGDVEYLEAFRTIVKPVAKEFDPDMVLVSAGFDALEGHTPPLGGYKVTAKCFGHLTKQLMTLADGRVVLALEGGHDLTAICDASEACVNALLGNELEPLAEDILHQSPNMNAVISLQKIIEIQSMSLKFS
T1 sequence (Q969S8 whole entry): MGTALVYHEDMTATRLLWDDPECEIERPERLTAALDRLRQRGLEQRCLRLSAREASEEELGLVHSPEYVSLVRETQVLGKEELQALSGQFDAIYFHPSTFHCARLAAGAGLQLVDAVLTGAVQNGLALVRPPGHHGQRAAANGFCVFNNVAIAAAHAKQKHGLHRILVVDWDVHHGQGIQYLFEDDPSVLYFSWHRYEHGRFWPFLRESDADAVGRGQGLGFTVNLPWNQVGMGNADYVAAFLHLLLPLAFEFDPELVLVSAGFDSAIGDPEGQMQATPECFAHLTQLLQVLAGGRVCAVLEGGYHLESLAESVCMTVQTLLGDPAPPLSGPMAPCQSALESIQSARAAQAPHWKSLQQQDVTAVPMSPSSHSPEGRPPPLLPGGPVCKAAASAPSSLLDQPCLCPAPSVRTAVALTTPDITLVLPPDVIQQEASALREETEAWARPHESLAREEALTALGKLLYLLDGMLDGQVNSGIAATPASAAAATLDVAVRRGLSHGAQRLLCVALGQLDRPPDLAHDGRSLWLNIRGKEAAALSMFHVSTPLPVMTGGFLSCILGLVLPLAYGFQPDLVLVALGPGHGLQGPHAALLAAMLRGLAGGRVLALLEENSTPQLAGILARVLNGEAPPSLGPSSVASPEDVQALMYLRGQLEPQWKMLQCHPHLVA
T4 sequence (Q92769 whole entry): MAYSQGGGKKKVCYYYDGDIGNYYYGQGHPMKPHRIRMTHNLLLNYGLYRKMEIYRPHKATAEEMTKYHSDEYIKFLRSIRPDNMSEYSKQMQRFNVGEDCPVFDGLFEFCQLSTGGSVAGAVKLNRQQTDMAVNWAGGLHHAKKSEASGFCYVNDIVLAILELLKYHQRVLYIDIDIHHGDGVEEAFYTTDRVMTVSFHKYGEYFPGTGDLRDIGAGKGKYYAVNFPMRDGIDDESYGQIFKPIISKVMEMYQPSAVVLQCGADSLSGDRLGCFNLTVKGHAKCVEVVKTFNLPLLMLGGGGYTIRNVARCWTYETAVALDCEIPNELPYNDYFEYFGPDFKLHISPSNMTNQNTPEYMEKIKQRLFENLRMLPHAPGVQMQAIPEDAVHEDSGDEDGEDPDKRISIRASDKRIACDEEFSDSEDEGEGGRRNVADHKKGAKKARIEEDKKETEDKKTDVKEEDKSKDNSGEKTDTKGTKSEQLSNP

For the compound `CCCCCOCCCCCNNC(=O)c1ccc(CNC(=O)c2ccccc2)cc1` [B6], in data set [1] (50 mg kg^−1 p.o. daily for 30 d, ICR mice), the “overall health and behavior” value is “no signs of toxicity”. Further, the “body weight of male and female mice” value in data set [1] (setting [9]) is “did not induce any significant abnormal changes”. Moreover, the “histopathological evaluations of liver, kidneys, heart, spleen and lungs” value in data set [1] (setting [9]) is “no significant differences”. Moreover, the therapeutic window result in data set [1] (50 mg kg^−1 vs effective dose 5 mg kg^−1) is “at least tenfold”. Further, the IC50 was above 10 µM in data set [2]; above 10 µM in data set [3]; 0.0511 µM in data set [4]; above 10 µM in data set [5]; above 10 µM in data set [6]. In addition, in data set [7], the “tissue distribution (blood, heart, liver, spleen, lung, kidney)” value is “highest concentrations observed in the liver and kidneys”. Moreover, the “LKB1 mRNA levels” value in data set [8] (FFA-induced HepG2 cells) is on record as “increase in LKB1 mRNA levels”. For the same compound, in data set [8] (FFA-induced HepG2 cells), the “mRNA levels of CaMKKβ and TAK1” value is given as “did not exhibit significant changes”. Also, the “protein and mRNA expression of CPT1A, PGC1α and PPARα” value in data set [8] (setting [10]) is “upregulation of protein and mRNA expression”. Besides, in data set [8] (setting [10]), the “protein and mRNA expression of SREBP1c, FASN and SCD1” value is “reduction of protein and mRNA expression”. Moreover, the “phosphorylation of AMPKα at Thr172” value in data set [8] (setting [11]) was “restores the phosphorylation level”. Besides, the “protein expression of LKB1 and p-LKB1” value in data set [8] (setting [11]) is “increase LKB1 expression”.
